Data published in article PMC3481155, “AhR activation underlies the CYP1A autoinduction by A-998679 in rats” (Frontiers in Genetics, 2012).

Key:
[1] = test system: Cyp1a1; assay: Cyp1a1 mRNA in rat small intestine (jejunum); assay type: in vivo
Description: (§1) All animal experiments were conducted in accordance with the Guiding Principles in the Use of Animals in Toxicology (http://www.toxicology.org/ai/air/air6.asp) and were approved by Abbott's Institutional Animal Care and Use Committee (IACUC). Male Sprague-Dawley rats [Crl:CD®(SD)IGS BR], weighing ~250 g at study initiation were obtained from Charles River Laboratories, Inc. (Wilmington, MA). Rats were housed singly in ventilated, stainless steel, wire-bottom hanging cages and fed non-certified Rodent Chow (Harlan Labs, Madison, WI), and water ad libitum and acclimated for at least 5 days after arrival. […] Serum clinical chemistry parameters were quantified using an Aeroset Clinical Chemistry Analyzer (Abbott Laboratories, Abbott Park, IL) and included alanine amino transferase (ALT), aspartate amino transferase (AST), gamma glutamyltransferase (GGT), and alkaline phosphatase (ALP) activities.
(§2) Frozen liver or jejunum were immediately added to 4 ml of TRIzol reagent (Invitrogen Life Technologies) and homogenized using a Polytron 300D homogenizer (Brinkman Instruments, Westbury, NY). […] Nucleic acid concentration was determined by OD 260 nm (Smart-Spec, Bio-Rad Laboratories, Hercules, CA), and RNA integrity was evaluated using an Agilent 2100 bioanalyzer (Agilent Technologies, Foster City, CA). […]

[2] = test system: Mrp2; assay: Mrp2 expression in rat small intestine; assay type: in vivo; conditions: treated rats; data not shown
Description: as §1, §2

[3] = target: T1, rat Cyp 2C13 (Rattus norvegicus, UniProt P20814); assay: Recombinant rat Cyp phenotype profiling, 2C13; assay type: in vitro ADME; conditions: 60 min
T1 construct: purchased BD Gentest; host or cells: baculovirus infected insect cells
Description: (§3) Identification of the drug metabolizing enzymes (DMEs) of A-998679 was studied in cDNA expressed recombinant enzymes prepared from baculovirus infected insect cells over-expressing rat Cyp isoforms (BD Gentest, Woburn, MA) as listed in Table 2. Incubations were conducted in duplicate using Supersomes. The incubation mixture contained 100 pmol/ml of enzymes, except for Cyp1a1 (200 pmol/ml), 0.1 or 0.21 μM of [^3H]A-998679 in 100 mM phosphate buffer (pH 7.4). Reactions were initiated with the addition of NADPH at a final concentration of 1 mM and incubated at 37°C for 60 min. At the end of the incubation period, the incubations were terminated by the addition of acetonitrile/ethanol (50/50, v/v) solution. Insect control samples lacking expressed enzyme were used as negative control. The degree of metabolism of A-998679 was assessed by percent of parent remaining using the radio-HPLC method described below.
(§4) Radiolabeled components from the above assays were profiled following separation by HPLC with on line radioflow detector. The system consisted of an Agilent 1100 Series quaternary pump and autosampler connected to a Packard 500TR flow scintillation detector. The data were processed using the Radiomatic™ Flo-one® software v3.65. The scintillant (Perkin Elmer FLO-SCINT™ III) flow was maintained at 3 ml/min. […]

[4] = target: T2, rat Cyp 2E1 (Rattus norvegicus, UniProt P05182); assay: Recombinant rat Cyp phenotype profiling, 2E1; assay type: in vitro ADME; conditions: 60 min
T2 construct: purchased BD Gentest; host or cells: baculovirus infected insect cells
Description: as §3, §4

T1 sequence (P20814 whole entry): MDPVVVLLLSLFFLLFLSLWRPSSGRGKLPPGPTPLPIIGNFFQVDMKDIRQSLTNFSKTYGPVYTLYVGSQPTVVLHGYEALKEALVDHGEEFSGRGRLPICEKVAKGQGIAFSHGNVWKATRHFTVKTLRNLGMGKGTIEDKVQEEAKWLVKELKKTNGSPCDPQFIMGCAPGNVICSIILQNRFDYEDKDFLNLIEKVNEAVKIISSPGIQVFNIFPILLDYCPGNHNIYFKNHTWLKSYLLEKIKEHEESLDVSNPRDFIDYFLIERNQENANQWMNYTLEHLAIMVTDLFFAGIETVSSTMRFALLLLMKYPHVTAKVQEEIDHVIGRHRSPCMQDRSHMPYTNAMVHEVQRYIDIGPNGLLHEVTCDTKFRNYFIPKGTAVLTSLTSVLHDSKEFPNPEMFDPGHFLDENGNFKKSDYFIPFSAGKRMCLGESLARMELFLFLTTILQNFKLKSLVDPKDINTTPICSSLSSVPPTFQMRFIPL
T2 sequence (P05182 whole entry): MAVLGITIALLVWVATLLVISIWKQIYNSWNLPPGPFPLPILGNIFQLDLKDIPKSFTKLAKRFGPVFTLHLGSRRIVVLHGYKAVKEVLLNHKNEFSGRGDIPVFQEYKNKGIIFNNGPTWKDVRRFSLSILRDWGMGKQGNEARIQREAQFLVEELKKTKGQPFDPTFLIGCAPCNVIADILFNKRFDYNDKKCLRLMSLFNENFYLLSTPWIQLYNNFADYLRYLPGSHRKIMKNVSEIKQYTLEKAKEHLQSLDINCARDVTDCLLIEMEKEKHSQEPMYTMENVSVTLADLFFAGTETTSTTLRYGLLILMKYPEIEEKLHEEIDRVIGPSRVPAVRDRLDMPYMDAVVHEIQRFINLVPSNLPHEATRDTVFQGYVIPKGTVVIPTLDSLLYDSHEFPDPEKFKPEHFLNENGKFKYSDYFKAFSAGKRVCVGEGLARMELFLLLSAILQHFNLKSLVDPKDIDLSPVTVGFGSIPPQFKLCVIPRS

N#Cc1cccc(-c2noc(-c3cccnc3)n2)c1 [A-998679, 3-(5-pyridin-3-yl-1,2,4-oxadiazol-3-yl) benzonitrile]
Cyp1a1 mRNA expression in rat jejunum ([1]; 200 mg/kg): significantly decreased
Cyp1a1 mRNA expression in rat jejunum ([1]; 30 and 100 mg/kg, high interindividual variability): increased
expression of Mrp2 in small intestine [2]: increased expression
% parent remaining ([3]; recombinant rat Cyp 2C13, 0.10 μM): 100%
% parent remaining ([3]; recombinant rat Cyp 2C13, 0.21 μM): 100%
% parent remaining ([4]; recombinant rat Cyp 2E1, 0.10 μM): 95.5%
% parent remaining ([4]; recombinant rat Cyp 2E1, 0.21 μM): 91.9%
